The source of these data is patent US6727237B2, “Inhibitors of bacterial NAD synthetase” (priority 1998, dated 2004).

Like-named read-outs stand apart in the source and are kept apart here.

Data set [1] concerns the target T1, bacterial NAD synthetase enzyme (Bacillus subtilis, UniProt P08164).
T1 sequence (P08164 2-272 limits assumed): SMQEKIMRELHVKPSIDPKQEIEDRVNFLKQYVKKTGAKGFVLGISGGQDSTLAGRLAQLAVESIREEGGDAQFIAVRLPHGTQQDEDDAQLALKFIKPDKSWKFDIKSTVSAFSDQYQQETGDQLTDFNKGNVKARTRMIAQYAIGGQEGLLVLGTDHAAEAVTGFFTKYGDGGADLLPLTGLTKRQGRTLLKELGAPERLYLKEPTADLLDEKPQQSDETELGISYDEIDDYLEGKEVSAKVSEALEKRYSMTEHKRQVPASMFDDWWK
The following applies: 2 mL Assay (cuvette); substrate; double reciprocal plots.

Data set [2] has as its system K562 human myeloid cell line. The data set is described as follows: In vitro toxicity in human cells, propidium iodide flow cytometry, minimum toxic concentration. As to the method: The final concentration of DMSO was less than 5%, and a DMSO control was included. The mixtures were incubated at doubling dilutions (approximately 1000 μM-10 μM range) of inhibitor for 15 hours at 37° C. At this time propidium iodide was added (1 μg/mL) and the mixture incubated at 30 min. at 4° C. The cells were washed once with medium, centrifuged, and resuspended in 2% bovine serum albumin/phosphate-buffered saline. The cell suspension was then run through a FAC Saliber flow cytometer and approximately 5000 cells were counted. The proportion of dead (stained) cells was determined, and the percent of live cells was expressed as % controls.

Data set [3] has as its target T1, bacterial NAD synthetase enzyme. The data set is described as follows: biochemical. It counts as biochemical.
Data set [4] concerns Staphylococcus epidermitis. The data set is described as follows: Bacterial growth inhibition screen in LB media (absorbance 595 nm), percent inhibition. The following applies: for inhibition of growth at 100 µM: concentration screened 100 uM.
Data set [5] has as its system Staphylococcus epidermitis. The data set is described as follows: Dose response of bacterial growth inhibition, MIC85. The following applies: Staphylococcus, read-out: MIC85.
The next data set has as its system B. subtilis. The data set is described as above. To be noted: Bacillus subtilis, read-out: MIC85.
The mark [6] stands for this setting: K562 human myeloid cells, 15 hours at 37° C., propidium iodide.
[7] abbreviates: lead compounds (Table 318A), read-out: IC 50.
Where [8] appears, read: Staphylococcus, read-out: % Inhibition, S. epidermitis.

For `N` [NH3, ammonia], in data set [1], the Km is 2880 µM and the Vmax is 137 nM/s.
Take `COC(=O)c1cc2cc(OCc3ccccc3)ccc2n1CCCCCCCCOC(=O)c1cccnc1` [Compound 953]: the “Minimum Toxic Dose” value in data set [2] (setting [6]) was determined as 100 µM.
Consider `[Mg+2]` [Mg^+2, magnesium], for which the Km came out at 2600 µM in data set [1] and 2900 µM in data set [3] (0.2 mL Assay (microtiter plate), substrate). Besides, in data set [1], the Vmax came out at 120 nM/s.
As to `Fc1cc(F)c2[nH]c(CCCC[n+]3cccc4ccccc43)cc2c1` [Compound 409], the “% Inhibition” value in data set [3] (compound at 0.2 mM (Table 312A)) was 19.02%; in data set [4] (S. epidermitis, concentration screened 10 uM), 2.44%. Further, the “Minimum Toxic Dose” value in data set [2] (setting [6]) was 200 µM.
On to `COC(=O)c1cc2ccccc2n1CCCCCCCCOC(=O)c1cccnc1` [Compound 949], for which the “Minimum Toxic Dose” value in data set [2] (setting [6]) was found to be 200 µM.
As to `C[n+]1cccc(C(=O)OCCCCCCCCn2ccc3cc(OCc4ccccc4)ccc32)c1` [Compound 769], the results for the MIC (in data set [5]; in the data set on B. subtilis) were 10 µM and 3 µM, respectively. 100 µM produced 98.3% inhibition in data set [3]. Moreover, in data set [3] (setting [7]), the IC50 was determined as 20 µM. Also, in data set [4] (setting [8]), the inhibition of growth at 100 µM worked out at 95.9%.
Turning to `C[N+](C)(C)c1ccc(CC(=O)OCCCCCCCCn2ccc3cc(OCc4ccccc4)ccc32)cc1` [Compound 749], the MIC in data set [5] stood at 10 µM; with B. subtilis, 3 µM. In data set [3], the IC50 is 25 µM. In data set [3], this compound gave an inhibition at 100 µM of 98.2%. Moreover, the inhibition of growth at 100 µM in data set [4] (setting [8]) was determined as 98.7%.
For the compound `COC(=O)c1cc2ccccc2n1CCCCCCOC(=O)c1cccnc1` [Compound 947], the “Minimum Toxic Dose” value in data set [2] (setting [6]) is 200 µM.
As to `COC(=O)c1cc2cc(OCc3ccccc3)ccc2n1CCCCCCCCOC(=O)c1ccc[n+](C)c1` [Compound 977], in data set [3], the IC50 amounted to 10 µM and the inhibition at 100 µM turned out to be 87.6%. The MIC with B. subtilis was determined as 10 µM.
Take `COC(=O)c1cc2cc(OCc3ccccc3)ccc2n1CCCCCCCOC(=O)Cc1ccc([N+](C)(C)C)cc1` [Compound 988]: 100 µM produced 84.3% inhibition in data set [3]. Also, the MIC in the data set with B. subtilis is 10 µM.
Regarding `COC(=O)c1cc2cc(OCc3ccccc3)ccc2n1CCCCCCCCC[n+]1ccccc1` [Compound 230], the figures for the MIC (in data set [5]; in the data set on B. subtilis) were 3 µM and 10 µM, respectively. Besides, the inhibition at 100 µM in data set [3] came out at 93.1%. Moreover, the inhibition of growth at 100 µM in data set [4] (setting [8]) stood at 95.5%.
In the case of `O=C(O)C=Cc1cn(CCCCCCCCC[n+]2cccc(C(=O)[O-])c2)c2ccccc12` [Compound 274], in data set [2] (setting [6]), the “Minimum Toxic Dose” value amounted to 300 µM.
`CC(=O)c1ccc2[nH]c(CCCCCCCCOC(=O)Cc3ccc[n+](C)c3)cc2c1` [Compound 939]: in data set [3], the IC50 was found to be 25 µM and the inhibition at 250 µM was determined as 97.8%. Further, the “Minimum Toxic Dose” value in data set [2] (human, 15 h) is 500 µM.
In data set [3], `COC(=O)c1cc2ccccc2n1CCCCCCCOC(=O)Cc1ccc([N+](C)(C)C)cc1` [Compound 984] yielded an IC50 of 20 µM and an inhibition at 50 µM of 87.5%. Besides, the MIC in the data set with B. subtilis stood at 30 µM.
In the same order, the values of `COC(=O)c1cc2ccccc2n1CCCCCCCCOC(=O)Cc1ccc([N+](C)(C)C)cc1` [Compound 985] are 15 µM, 92.1% and 10 µM.
Take `COC(=O)c1cc2ccccc2n1CCCCCCCOC(=O)c1cccnc1` [Compound 948]: the “% Inhibition” value in data set [3] (compound at 0.05 mM) was determined as 2.52%. Moreover, the “Minimum Toxic Dose” value in data set [2] (setting [6]) is 200 µM.
In the case of `COC(=O)C=Cc1cn(CCCCCCCCC[n+]2cccc(C(=O)OC)c2)c2ccccc12` [Compound 270], the MIC in data set [5] was 10 µM. Moreover, the IC50 in data set [3] came to 60 µM. The “Minimum Toxic Dose” value in data set [2] (human, 15 h) was found to be 200 µM. Also, in data set [4] (Staphylococcus, read-out: % Inhibition, S. epidermitis, concentration screened 10 uM), the inhibition of growth at 10 µM turned out to be 97.5%.
Consider `COC(=O)c1cc2cc(OCc3ccccc3)ccc2n1CCCCCCOC(=O)c1cccnc1` [Compound 951], for which the “Minimum Toxic Dose” value in data set [2] (setting [6]) was 500 µM.
Regarding `COC(=O)c1cc2ccccc2n1CCCCCCCCCOC(=O)Cc1ccc([N+](C)(C)C)cc1` [Compound 986], in data set [3], the inhibition at 50 µM was 30.8%. Moreover, the IC50 in data set [3] (setting [7]) was determined as 10 µM. Besides, the MIC in the data set on B. subtilis amounted to 10 µM.
